Assay results taken from publication PMC12396409, “Screening and hit evaluation of a microbial metabolite library against the pathogenic Plasmodium falciparum and Toxoplasma gondii parasites” (International Journal for Parasitology: Drugs and Drug …, 2025).
Read-outs that look alike come from different tables or passages of the source.

Key:
[1] = system: P. falciparum 3D7 parasites; experiment: P. falciparum growth inhibition assay, 1-cycle (72 h treatment), SYBR DNA staining (library screen at 2 μg/mL and dose-response); type: cell-based, Plasmodium falciparum; conditions: for activity at 2 µg/mL: Plasmodium falciparum, 3D7, 72 h
[2] = system: T. gondii RH strain (RH-Tub-eYFP) tachyzoites; experiment: microbe, parasite or virus in culture; type: cell-based, Toxoplasma gondii; conditions: 72 h; for percent parasite growth at 2 µg/mL: Toxoplasma gondii
[3] = system: P. falciparum 3D7 parasites; experiment: P. falciparum growth inhibition assay, 2-cycle (120 h treatment), delayed-death screen and dose-response; type: cell-based, Plasmodium falciparum; conditions: for activity at 2 µg/mL: Plasmodium falciparum, 3D7, 120 h
[4] = P. falciparum, 72 h, screen at 2 μg/mL, replicate 1
[5] = P. falciparum, 72 h, screen at 2 μg/mL, replicate 2
[6] = T. gondii, screen at 2 μg/mL, replicate 1
[7] = T. gondii, screen at 2 μg/mL, replicate 2
[8] = P. falciparum, 120 h, screen at 2 μg/mL, replicate 1
[9] = P. falciparum, 120 h, screen at 2 μg/mL, replicate 2

For `CC[C@H]1CCC[C@H](O)[C@@H](C)C(=O)C2=C[C@@H]3[C@@H](C=C(C)[C@@H]4C[C@@H](O[C@@H]5O[C@@H](C)[C@H](OC)[C@@H](OC)[C@H]5OC)C[C@@H]34)[C@@H]2CC(=O)O1` [Spinosyn D 17-pseudoaglycone], the Pf_72h_%Growth_Rep1 ([1]; P. falciparum, 72 h, parasite screen 2 μg/mL, % growth, replicate 1) was 18.47%, the Pf_72h_%Growth_Rep2 ([1]; P. falciparum, 72 h, parasite screen 2 μg/mL, % growth, replicate 2) was 12.37% and the Tg_72h_%Growth_Rep1 ([2]; T. gondii, parasite screen 2 μg/mL, % growth, replicate 1) was 111.08%. It also gave a Tg_72h_%Growth_Rep2 ([2]; T. gondii, parasite screen 2 μg/mL, % growth, replicate 2) of 100.61%, a Pf_120h_%Growth_Rep1 ([3]; P. falciparum, 120 h, parasite screen 2 μg/mL, % growth, replicate 1) of 8.86% and a Pf_120h_%Growth_Rep2 ([3]; P. falciparum, 120 h, parasite screen 2 μg/mL, % growth, replicate 2) of 19.25%.
In the case of `CCCCCCC(C)C/C(C)=C/C(C)/C=C(C)/C=C/C(O)C(C)(C)c1cc(O)c([C@@H]2O[C@H](CO)C[C@H](O)[C@H]2O)c(=O)o1` (stereo partly drawn) [Deoxyfusapyrone], the Pf_72h_%Growth_Rep1 [1, 4] is reported as 84.11%, the Pf_72h_%Growth_Rep2 [1, 5] is reported as 85.81% and the Tg_72h_%Growth_Rep1 [2, 6] is reported as 120.14%. For the same molecule, the Tg_72h_%Growth_Rep2 [2, 7] was 99.56%, the Pf_120h_%Growth_Rep1 [3, 8] was 68.41% and the Pf_120h_%Growth_Rep2 [3, 9] was 93.55%.
`CN(C)[C@@H]1C(O)=C(C(N)=O)C(=O)[C@@]2(O)C(O)=C3C(=O)c4c(O)cccc4[C@@](C)(O)[C@H]3[C@H](O)[C@@H]12` [BIA-O1336] showed a Pf_72h_%Growth_Rep1 ([1]; P. falciparum 3D7, 72 h, parasite screen at 2 μg/mL, % growth, replicate 1) of 45.04%, a Pf_72h_%Growth_Rep2 ([1]; P. falciparum 3D7, 72 h, parasite screen at 2 μg/mL, % growth, replicate 2) of 49.67% and a Tg_72h_%Growth_Rep1 ([2]; T. gondii, parasite screen at 2 μg/mL, % growth, replicate 1) of 105.05%. It also gave a Tg_72h_%Growth_Rep2 ([2]; T. gondii, parasite screen at 2 μg/mL, % growth, replicate 2) of 93.22%, a Pf_120h_%Growth_Rep1 ([3]; P. falciparum 3D7, 120 h, parasite screen at 2 μg/mL, % growth, replicate 1) of 15.40% and a Pf_120h_%Growth_Rep2 ([3]; P. falciparum 3D7, 120 h, parasite screen at 2 μg/mL, % growth, replicate 2) of 14.90%.
For `CO[C@H]1/C=C\C=C(\C)C[C@H](C)[C@H](O)[C@H](C)/C=C(C)\C=C(\C)C(=O)O[C@@H]1[C@@H](C)[C@@H](O)[C@H](C)[C@@]1(O)C[C@@H](OC(=O)/C=C/C(=O)O)[C@H](C)[C@@H](C(C)C)O1` [TS 155-2], the Pf_72h_%Growth_Rep1 [1, 4] was 3.32%, the Pf_72h_%Growth_Rep2 [1, 5] was -2.51% and the Tg_72h_%Growth_Rep1 [2, 6] was 1.68%. The Tg_72h_%Growth_Rep2 [2, 7] was -0.35%, the Pf_120h_%Growth_Rep1 [3, 8] was 23.01% and the Pf_120h_%Growth_Rep2 [3, 9] was 6.11%.
`CN1C(=O)[C@]23CC4=CC=C[C@H](O)[C@H]4N2C(=O)[C@@]1(CO)SS3` [BIA-G1260] was tested, and the Pf_72h_%Growth_Rep1 ([1]; P. falciparum 3D7, 72 h, library screen at 2 μg/mL, % growth, replicate 1) was 14.96%, the Pf_72h_%Growth_Rep2 ([1]; P. falciparum 3D7, 72 h, library screen at 2 μg/mL, % growth, replicate 2) was 8.82% and the Tg_72h_%Growth_Rep1 ([2]; T. gondii RH, library screen at 2 μg/mL, % growth, replicate 1) was 1.56%. It also gave a Tg_72h_%Growth_Rep2 ([2]; T. gondii RH, library screen at 2 μg/mL, % growth, replicate 2) of 0.82%, a Pf_120h_%Growth_Rep1 ([3]; P. falciparum 3D7, 120 h, library screen at 2 μg/mL, % growth, replicate 1) of 35.56% and a Pf_120h_%Growth_Rep2 ([3]; P. falciparum 3D7, 120 h, library screen at 2 μg/mL, % growth, replicate 2) of 25.95%.
With `C[C@@]12c3ccc4c(c3C(=O)c3occ(c31)[C@@H](O)C[C@H]2O)CCC4=O` [Demethoxyviridiol] the Pf_72h_%Growth_Rep1 [1, 4] was 73.11%, the Pf_72h_%Growth_Rep2 [1, 5] was 74.92% and the Tg_72h_%Growth_Rep1 [2, 6] was 264.14%. For the same molecule, the Tg_72h_%Growth_Rep2 [2, 7] was 123.20%, the Pf_120h_%Growth_Rep1 [3, 8] was 76.39% and the Pf_120h_%Growth_Rep2 [3, 9] was 74.74%.
With `COC[C@@H](C[C@H]1O[C@@](O)([C@H](O)[C@@H]2C[C@H](OC)[C@@H](O)CC/C=C(C)/C=C/[C@@H](O[C@@H]3O[C@@H](C)[C@H](OC)[C@@H](O)[C@@H]3O)[C@H](C)/C=C(C)/C=C(C)/C=C(\C)C(=O)O2)[C@H](C)[C@@H](O)[C@H]1C)OC1C[C@](C)(O)[C@@H](O[C@H]2C[C@@H](OC)[C@H](O)[C@@H](C)O2)[C@H](C)O1` (stereo partly drawn) [Apoptolidin] the activity at 2 µg/mL ([1]; library screen at 2 μg/mL, 72 h, % growth, replicate 1, read-out: Pf_72h_%Growth_Rep1) was 59%, the activity at 2 µg/mL ([1]; library screen at 2 μg/mL, 72 h, % growth, replicate 2, read-out: Pf_72h_%Growth_Rep2) was 49.8% and the percent parasite growth at 2 µg/mL ([2]; library screen at 2 μg/mL, % growth, replicate 1, read-out: Tg_72h_%Growth_Rep1) was 76.4%. It also gave a percent parasite growth at 2 µg/mL ([2]; library screen at 2 μg/mL, % growth, replicate 2, read-out: Tg_72h_%Growth_Rep2) of 73%, an activity at 2 µg/mL ([3]; library screen at 2 μg/mL, 120 h, % growth, replicate 1, read-out: Pf_120h_%Growth_Rep1) of 34.5% and an activity at 2 µg/mL ([3]; library screen at 2 μg/mL, 120 h, % growth, replicate 2, read-out: Pf_120h_%Growth_Rep2) of 23.8%.
